pIC50: −log10 of the molar value.
Experiments:
Assay in all cases: [3H]-dTTP incorporation into poly(dA)/oligo(dT)[…]
Assay type in all cases: biochemical
calf pol α = target: T1, calf pol α (Bos taurus, UniProt A0AAA9THK8); conditions: read-out: relative pol activity at 100 μM
T1 construct: gene POLA1; with DNA polymerase alpha subunit B; DNA primase small subunit; DNA primase large subunit

human pol λ [1] = target: T2, human pol λ (Homo sapiens, UniProt Q9UGP5); conditions: read-out: relative pol activity at 100 μM
T2 construct: gene POLL; recombinant, His-tagged
T2 sequence (Q9UGP5 1-575): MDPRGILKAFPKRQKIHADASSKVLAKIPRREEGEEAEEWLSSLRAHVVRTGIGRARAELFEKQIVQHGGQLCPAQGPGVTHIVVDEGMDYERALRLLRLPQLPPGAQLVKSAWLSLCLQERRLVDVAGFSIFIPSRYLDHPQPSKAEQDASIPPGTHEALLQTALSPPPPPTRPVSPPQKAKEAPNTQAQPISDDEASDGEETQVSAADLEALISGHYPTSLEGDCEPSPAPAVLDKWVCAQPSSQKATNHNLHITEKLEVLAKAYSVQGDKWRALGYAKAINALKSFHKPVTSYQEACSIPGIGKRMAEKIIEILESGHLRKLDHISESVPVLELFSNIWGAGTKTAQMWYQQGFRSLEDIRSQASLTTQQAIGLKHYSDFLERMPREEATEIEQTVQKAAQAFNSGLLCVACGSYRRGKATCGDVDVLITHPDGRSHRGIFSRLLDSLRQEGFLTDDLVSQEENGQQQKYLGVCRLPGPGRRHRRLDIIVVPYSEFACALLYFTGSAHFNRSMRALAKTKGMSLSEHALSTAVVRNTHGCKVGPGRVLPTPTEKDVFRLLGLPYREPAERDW

human pol κ [2] = target: T3, human pol κ (Homo sapiens, UniProt Q9UBT6); conditions: read-out: relative pol activity at 100 μM
T3 construct: gene POLK; truncated, residues 1-560, C-terminal 6xHis tag, produced in E. coli
T3 sequence (Q9UBT6 1-560): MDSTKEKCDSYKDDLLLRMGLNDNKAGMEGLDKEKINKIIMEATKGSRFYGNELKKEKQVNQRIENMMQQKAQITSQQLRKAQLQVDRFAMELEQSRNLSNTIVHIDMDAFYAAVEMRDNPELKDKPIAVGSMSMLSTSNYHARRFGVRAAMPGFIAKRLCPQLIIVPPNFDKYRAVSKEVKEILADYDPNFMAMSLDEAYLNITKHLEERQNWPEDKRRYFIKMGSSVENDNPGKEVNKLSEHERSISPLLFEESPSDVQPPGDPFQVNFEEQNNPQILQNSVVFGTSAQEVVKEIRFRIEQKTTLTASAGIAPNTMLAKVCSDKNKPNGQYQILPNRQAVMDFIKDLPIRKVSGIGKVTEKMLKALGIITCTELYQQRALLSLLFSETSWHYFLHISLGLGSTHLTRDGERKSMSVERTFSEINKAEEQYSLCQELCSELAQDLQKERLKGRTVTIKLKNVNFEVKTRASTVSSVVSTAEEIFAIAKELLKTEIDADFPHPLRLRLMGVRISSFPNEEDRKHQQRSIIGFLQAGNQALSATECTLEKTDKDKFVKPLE

human pol λ [3] = target: T2, human pol λ
human pol κ [4] = target: T3, human pol κ
human pol γ = target: T4, human pol γ (Homo sapiens, UniProt P54098)
T4 construct: gene POLG
T4 sequence (P54098 1-1239): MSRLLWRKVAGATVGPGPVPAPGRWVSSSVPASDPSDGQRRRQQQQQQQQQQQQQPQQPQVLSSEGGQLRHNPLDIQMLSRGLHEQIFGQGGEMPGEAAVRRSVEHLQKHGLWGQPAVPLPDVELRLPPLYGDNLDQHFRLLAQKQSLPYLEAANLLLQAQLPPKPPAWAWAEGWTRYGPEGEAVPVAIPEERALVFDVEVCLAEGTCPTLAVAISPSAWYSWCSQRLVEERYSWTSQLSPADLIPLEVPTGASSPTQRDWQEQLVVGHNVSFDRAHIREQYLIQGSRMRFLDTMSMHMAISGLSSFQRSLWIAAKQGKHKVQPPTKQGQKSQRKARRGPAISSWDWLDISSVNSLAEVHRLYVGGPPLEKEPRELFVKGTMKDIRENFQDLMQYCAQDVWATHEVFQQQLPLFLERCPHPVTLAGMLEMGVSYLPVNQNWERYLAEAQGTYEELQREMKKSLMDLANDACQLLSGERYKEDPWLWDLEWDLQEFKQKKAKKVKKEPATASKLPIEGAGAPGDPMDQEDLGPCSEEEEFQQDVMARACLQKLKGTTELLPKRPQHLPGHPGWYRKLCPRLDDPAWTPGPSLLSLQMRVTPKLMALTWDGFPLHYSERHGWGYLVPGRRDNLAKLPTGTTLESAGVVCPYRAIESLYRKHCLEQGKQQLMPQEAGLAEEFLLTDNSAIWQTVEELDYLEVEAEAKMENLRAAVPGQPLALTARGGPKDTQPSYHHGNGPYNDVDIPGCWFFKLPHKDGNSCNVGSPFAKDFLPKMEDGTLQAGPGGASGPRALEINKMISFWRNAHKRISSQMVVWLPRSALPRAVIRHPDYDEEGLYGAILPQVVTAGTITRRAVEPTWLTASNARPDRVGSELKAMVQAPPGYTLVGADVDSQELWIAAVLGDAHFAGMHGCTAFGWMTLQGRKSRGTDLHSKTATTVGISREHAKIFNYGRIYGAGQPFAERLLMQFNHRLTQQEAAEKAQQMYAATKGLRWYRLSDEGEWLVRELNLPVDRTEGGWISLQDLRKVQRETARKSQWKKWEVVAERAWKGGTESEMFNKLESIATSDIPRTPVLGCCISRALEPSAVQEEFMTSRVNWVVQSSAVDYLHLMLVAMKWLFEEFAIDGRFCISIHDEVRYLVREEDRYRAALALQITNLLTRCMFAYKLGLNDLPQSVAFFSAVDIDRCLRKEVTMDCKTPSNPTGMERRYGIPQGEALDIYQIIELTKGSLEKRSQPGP

T1 sequence (A0AAA9THK8 1-1487): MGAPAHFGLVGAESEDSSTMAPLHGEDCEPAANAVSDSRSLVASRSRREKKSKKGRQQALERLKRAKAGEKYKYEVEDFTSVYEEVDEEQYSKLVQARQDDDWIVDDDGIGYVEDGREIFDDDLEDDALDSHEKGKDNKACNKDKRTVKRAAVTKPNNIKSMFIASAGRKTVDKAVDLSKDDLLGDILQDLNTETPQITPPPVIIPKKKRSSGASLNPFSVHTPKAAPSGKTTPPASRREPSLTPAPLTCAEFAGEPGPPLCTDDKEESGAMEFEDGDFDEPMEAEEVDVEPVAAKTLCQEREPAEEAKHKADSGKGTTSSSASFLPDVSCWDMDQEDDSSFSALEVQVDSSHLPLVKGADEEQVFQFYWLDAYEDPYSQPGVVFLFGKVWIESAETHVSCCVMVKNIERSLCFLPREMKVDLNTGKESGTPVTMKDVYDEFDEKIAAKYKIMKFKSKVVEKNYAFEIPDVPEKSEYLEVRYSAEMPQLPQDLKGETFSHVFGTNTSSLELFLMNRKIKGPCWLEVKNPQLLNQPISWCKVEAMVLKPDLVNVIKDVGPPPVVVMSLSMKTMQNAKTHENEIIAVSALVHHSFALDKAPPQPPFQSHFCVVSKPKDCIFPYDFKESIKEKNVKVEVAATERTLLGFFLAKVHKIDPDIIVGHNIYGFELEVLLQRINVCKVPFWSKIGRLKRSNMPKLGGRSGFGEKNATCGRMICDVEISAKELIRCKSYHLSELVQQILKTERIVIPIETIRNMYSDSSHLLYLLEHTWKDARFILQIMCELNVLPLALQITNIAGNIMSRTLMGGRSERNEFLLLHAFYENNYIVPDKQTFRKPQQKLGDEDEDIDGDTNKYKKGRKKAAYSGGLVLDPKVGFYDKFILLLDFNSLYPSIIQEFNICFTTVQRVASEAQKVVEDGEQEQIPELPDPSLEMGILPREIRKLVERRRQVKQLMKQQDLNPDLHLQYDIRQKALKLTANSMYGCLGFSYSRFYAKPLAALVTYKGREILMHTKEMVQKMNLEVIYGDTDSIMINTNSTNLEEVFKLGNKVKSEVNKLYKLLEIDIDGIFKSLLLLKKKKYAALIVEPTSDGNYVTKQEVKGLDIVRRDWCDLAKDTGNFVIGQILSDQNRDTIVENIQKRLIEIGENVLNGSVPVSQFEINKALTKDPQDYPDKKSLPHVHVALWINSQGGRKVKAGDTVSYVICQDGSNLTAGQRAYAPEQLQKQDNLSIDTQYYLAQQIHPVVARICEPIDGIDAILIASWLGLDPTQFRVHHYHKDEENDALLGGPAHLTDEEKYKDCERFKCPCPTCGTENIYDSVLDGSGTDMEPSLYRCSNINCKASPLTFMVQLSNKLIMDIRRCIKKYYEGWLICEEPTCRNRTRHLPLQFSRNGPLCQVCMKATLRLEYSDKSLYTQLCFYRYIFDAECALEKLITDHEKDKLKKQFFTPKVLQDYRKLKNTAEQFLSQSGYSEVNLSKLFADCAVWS
T1 sequence (Q58D13 whole entry partner): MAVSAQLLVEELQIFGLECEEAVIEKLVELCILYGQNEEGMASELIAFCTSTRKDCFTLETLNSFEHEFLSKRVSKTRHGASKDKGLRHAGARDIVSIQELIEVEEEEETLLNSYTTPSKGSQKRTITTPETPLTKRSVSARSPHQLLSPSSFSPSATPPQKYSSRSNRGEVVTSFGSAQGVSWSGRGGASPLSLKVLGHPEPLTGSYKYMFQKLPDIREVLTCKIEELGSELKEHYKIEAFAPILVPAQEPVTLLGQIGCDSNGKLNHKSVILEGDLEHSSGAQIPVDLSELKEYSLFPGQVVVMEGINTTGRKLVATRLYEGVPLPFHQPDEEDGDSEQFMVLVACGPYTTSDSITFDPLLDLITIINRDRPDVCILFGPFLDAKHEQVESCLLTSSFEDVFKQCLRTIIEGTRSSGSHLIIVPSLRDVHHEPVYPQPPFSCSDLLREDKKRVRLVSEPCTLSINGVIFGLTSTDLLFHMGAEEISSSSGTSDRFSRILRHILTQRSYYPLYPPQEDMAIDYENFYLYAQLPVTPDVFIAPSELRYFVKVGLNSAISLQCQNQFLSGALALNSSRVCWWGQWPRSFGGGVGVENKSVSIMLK
T1 sequence (A0A3Q1MF00 1-418 partner): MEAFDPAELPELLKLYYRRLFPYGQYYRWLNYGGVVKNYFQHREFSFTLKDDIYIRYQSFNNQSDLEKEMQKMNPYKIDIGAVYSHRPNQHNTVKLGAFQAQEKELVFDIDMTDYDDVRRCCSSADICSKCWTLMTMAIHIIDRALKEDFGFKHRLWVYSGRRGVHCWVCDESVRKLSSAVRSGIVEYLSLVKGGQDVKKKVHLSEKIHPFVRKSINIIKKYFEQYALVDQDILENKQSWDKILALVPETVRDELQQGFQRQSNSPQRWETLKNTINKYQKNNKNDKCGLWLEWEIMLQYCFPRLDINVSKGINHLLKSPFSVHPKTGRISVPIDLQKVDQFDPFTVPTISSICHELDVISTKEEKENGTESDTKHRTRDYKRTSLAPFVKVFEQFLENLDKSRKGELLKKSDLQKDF
T1 sequence (A0JNF4 1-506 partner): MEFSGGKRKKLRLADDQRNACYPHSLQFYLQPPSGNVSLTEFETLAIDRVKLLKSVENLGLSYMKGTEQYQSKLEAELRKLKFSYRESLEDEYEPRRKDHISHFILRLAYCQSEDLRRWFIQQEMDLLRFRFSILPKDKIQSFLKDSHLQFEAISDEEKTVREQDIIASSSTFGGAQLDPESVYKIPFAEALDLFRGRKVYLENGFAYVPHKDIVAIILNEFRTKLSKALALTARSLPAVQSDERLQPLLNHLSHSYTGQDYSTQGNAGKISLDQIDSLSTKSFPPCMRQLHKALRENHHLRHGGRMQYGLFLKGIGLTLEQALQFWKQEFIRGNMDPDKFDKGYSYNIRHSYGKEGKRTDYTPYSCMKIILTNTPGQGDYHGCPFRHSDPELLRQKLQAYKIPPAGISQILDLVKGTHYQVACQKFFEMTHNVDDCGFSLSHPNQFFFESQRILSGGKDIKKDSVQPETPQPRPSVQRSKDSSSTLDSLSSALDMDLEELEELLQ

activity at 100 µM (calf pol α) [%]	activity at 100 µM (human pol λ [1]) [%]	activity at 100 µM (human pol κ [2]) [%]	pIC50 (human pol λ [3])	pIC50 (human pol κ [4])	pIC50 (human pol γ)	Structure (SMILES)
< 50	< 50					CC1(C)[C@@H](O[C@@H]2O[C@H](C(=O)O)[C@@H](O)[C@H](O)[C@H]2O[C@@H]2O[C@H](C(=O)O)[C@@H](O)[C@H](O)[C@H]2O)CC[C@]2(C)[C@H]3C(=O)C=C4[C@@H]5C[C@@](C)(C(=O)O)CC[C@]5(C)CC[C@@]4(C)[C@]3(C)CC[C@@H]12 [compound 2, dipotassium glycyrrhizate]
< 50	< 50	< 50				CC1(C)[C@@H](O[C@H]2O[C@H](C(=O)O)[C@@H](O)[C@H](O)[C@H]2O[C@@H]2O[C@H](C(=O)O)[C@@H](O)[C@H](O)[C@H]2O)CC[C@]2(C)[C@H]3C(=O)C=C4[C@@H]5C[C@@](C)(C(=O)O)CC[C@]5(C)CC[C@@]4(C)[C@]3(C)CC[C@@H]12 [compound 1, 3-O-(2-O-β-D-glucopyranuronosyl-α-D-glucopyranuronosyl)-18β-glycyrrhetinic acid]
			4.86	4.80	4.71	CC1(C)[C@@H](O)CC[C@]2(C)[C@H]3C(=O)C=C4[C@@H]5C[C@@](C)(C(=O)O)CC[C@]5(C)CC[C@@]4(C)[C@]3(C)CC[C@@H]12 [compound 3, Glycyrrhetinic acid]

From article PMC3138047 (Evidence-based Complementary and Alternative Medicine : eCAM, 2011)
